We go through 10 compounds from ChEMBL document CHEMBL1811769, “Bioactive 11,20-epoxy-3,5(16)-diene briarane diterpenoids from the South China Sea gorgonian Dichotella gemmacea” (J Nat Prod, 2011).

Each structure is given as a SMILES string. Activity calls are given as the source filed them. The calls are words filed in the database; no cut-off is given here. Some results are limits rather than exact numbers.

One test has as its system Microbotryum violaceum. The experiment in a line: Antifungal activity against Microbotryum violaceum at 0.05 mg by agar diffusion method. The format is functional. The settings on record: for zone of inhibition at 50 µg/disc: read-out: DIZ. In general terms: Agar diffusion results depend on both activity and mobility in agar.
For a further test, the system named is Zymoseptoria tritici. The experiment in a line: Antifungal activity against Septoria tritici at 0.05 mg by agar diffusion method. The format is functional. The settings on record: for zone of inhibition at 50 µg/disc: read-out: DIZ.
Another test concerns Escherichia coli. In words: Antibacterial activity against Escherichia coli at 0.05 mg by agar diffusion method. In kind it is functional. The following applies: for zone of inhibition at 50 µg/disc: read-out: DIZ.
For a further test, the system named is Priestia megaterium. The experiment in a line: Antibacterial activity against Bacillus megaterium at 0.05 mg by agar diffusion method. The settings on record: for zone of inhibition at 50 µg/disc: read-out: DIZ. The format is functional.
The next test has as its system A549. In words: Growth inhibition of human A549 cells by MTT assay. In kind it is functional, cell-based.
For another test, the system named is MG-63. In words: Growth inhibition of human MG63 cells by MTT assay. The format is functional, cell-based. In general terms: Formazan colour is commonly taken as a measure of viable cells.

Turning to `C=C1/C=C/[C@H](OC(C)=O)[C@@]2(C)[C@@H](OC(C)=O)CC[C@]3(CO3)[C@@H]2[C@H](OC(C)=O)[C@]2(O)[C@@H](C)C(=O)O[C@H]2[C@H]1Cl`, the “diameter of the inhibition zone (DIZ)” value in the test with Microbotryum violaceum, in the test with Zymoseptoria tritici, in the test with Escherichia coli and in the test on Priestia megaterium was “inactive” each time.

Consider `C=C1/C=C/[C@H](OC(C)=O)[C@@]2(C)[C@@H](OC(C)=O)[C@@H](OC(=O)CC(C)C)[C@@H](OC(C)=O)[C@]3(CO3)[C@@H]2[C@H](OC(C)=O)[C@]2(O)[C@@H](C)C(=O)O[C@H]2[C@H]1Cl`, for which the “diameter of the inhibition zone (DIZ)” value with Microbotryum violaceum, with Zymoseptoria tritici, in the test on Escherichia coli and in the test on Priestia megaterium was “inactive” throughout.

In the case of `COc1cccc2c1C(=O)c1c(O)c3c(c(O)c1C2=O)C[C@@](O)(C(=O)CO)C[C@@H]3O[C@H]1C[C@H](N)[C@H](O)[C@H](C)O1` [DOXORUBICIN], the half-inhibitory concentration (IC50) in the test on A549 and with MG-63 was 2.8 µM in each case.

`C=C1/C=C/[C@H](OC(C)=O)[C@@]2(C)[C@@H](OC(C)=O)[C@@H](OC(C)=O)[C@@H](OC(C)=O)[C@]3(CO3)[C@@H]2[C@H](OC(C)=O)[C@]2(O)[C@@H](C)C(=O)O[C@H]2[C@H]1Cl` [GEMMACOLIDE G]: the half-maximal inhibitory concentration (IC50) (usually the concentration at which inhibition is half-maximal) turned out to be 8.4 µM with A549 and 38.4 µM in the test with MG-63. Moreover, the “diameter of the inhibition zone (DIZ)” value with Microbotryum violaceum, in the test on Zymoseptoria tritici, with Escherichia coli and in the test on Priestia megaterium was “inactive” throughout.

For `C=C1/C=C/[C@H](OC(C)=O)[C@@]2(C)[C@@H](OC(C)=O)C[C@@H](OC(C)=O)[C@]3(CO3)[C@@H]2[C@H](OC(C)=O)[C@]2(O)[C@@H](C)C(=O)O[C@H]2[C@H]1Cl` [GEMMACOLIDE H], the half-maximal inhibitory concentration (IC50) in the test with A549 turned out to be 47.3 µM; with MG-63 it was 54 µM. The “diameter of the inhibition zone (DIZ)” value in the test on Microbotryum violaceum, in the test with Zymoseptoria tritici, with Escherichia coli and in the test on Priestia megaterium was “inactive” throughout.

`C=C1/C=C/[C@H](OC(C)=O)[C@@]2(C)[C@@H](OC(C)=O)C[C@@H](OC(=O)CC(C)C)[C@]3(CO3)[C@@H]2[C@H](OC(C)=O)[C@]2(O)[C@@H](C)C(=O)O[C@H]2[C@H]1Cl` [GEMMACOLIDE I]: the half-inhibitory concentration (IC50) in the test with A549 amounted to 20.6 µM; in the test with MG-63, 25 µM. In addition, the “diameter of the inhibition zone (DIZ)” value in the test with Microbotryum violaceum, with Zymoseptoria tritici, in the test on Escherichia coli and in the test on Priestia megaterium was “inactive” throughout.

On to `C=C1/C=C/[C@H](OC(C)=O)[C@@]2(C)[C@@H](OC(C)=O)[C@@H](OC(C)=O)[C@@H](OC(=O)CC(C)C)[C@]3(CO3)[C@@H]2[C@H](OC(C)=O)[C@]2(O)[C@@H](C)C(=O)O[C@H]2[C@H]1Cl` [GEMMACOLIDE J], for which the IC50 is under 1.4 µM in the test on A549 and 79.8 µM in the test with MG-63. The zone of inhibition at 50 µg/disc with Priestia megaterium came out at 16 mm.

Turning to `CC(=O)N1CCN(c2ccc(OCC3COC(Cn4ccnc4)(c4ccc(Cl)cc4Cl)O3)cc2)CC1` (stereo not drawn) [KETOCONAZOLE], the zone of inhibition at 50 µg/disc in the test with Microbotryum violaceum came out at 30 mm; with Zymoseptoria tritici it was 25 mm; in the test on Escherichia coli, 18 mm; with Priestia megaterium, 18 mm.

As to `CC1(C)S[C@@H]2[C@H](NC(=O)Cc3ccccc3)C(=O)N2[C@H]1C(=O)O` [PENICILLIN G], the zone of inhibition at 50 µg/disc is 14 mm with Microbotryum violaceum, 12 mm in the test with Zymoseptoria tritici, 8 mm with Escherichia coli and 26 mm in the test on Priestia megaterium.

Turning to `CN[C@@H]1[C@H](O[C@H]2[C@H](O[C@H]3[C@H](O)[C@@H](O)[C@H](N=C(N)N)[C@@H](O)[C@@H]3N=C(N)N)O[C@@H](C)[C@]2(O)C=O)O[C@@H](CO)[C@H](O)[C@H]1O` [STREPTOMYCIN], the zone of inhibition at 50 µg/disc with Microbotryum violaceum was found to be 16 mm; in the test on Zymoseptoria tritici, 11 mm; with Escherichia coli it was 18 mm; in the test on Priestia megaterium, 11 mm.
